We go through 15 compounds from patent US9669028B2, “Substituted 5-(pyrazin-2-yl)-1H-pyrazolo [3, 4-B] pyridine and pyrazolo [3, 4-B] pyridine derivatives as protein kinase inhibitors” (Arrien Pharmaceuticals LLC, priority 2011, dated 2017).

One data set concerns the target LRRK2 (Homo sapiens (Human), UniProt Q5S007). Briefly: LRRK2 Kinase Assay. The format is biochemical. The conditions noted are these: 10 μM ATP. The protocol: (§1) Briefly, specific kinase/substrate pairs along with required cofactors were prepared in reaction buffer; 20 mM Hepes (pH 7.5), 10 mM MgCl2, 1 mM EGTA, 0.02% Brij35, 0.02 mg/ml BSA, 0.1 mM Na3VO4, 2 mM DTT, 1% DMSO. Compounds were delivered into the reaction, followed ˜20 min later by addition of a mixture of ATP (Sigma) and 33P ATP (PerkinElmer) to a final concentration of 10 μM. […] IC50 values and curve fits were obtained using Prism (GraphPad Software). Kinome tree representations were prepared using Kinome Mapper (http://www.reactionbiology.com/apps/kinome/mapper/Launch Kinome.htm).
For the wild type LRRK the 2×LRRK2/ERM (LRRKtide) mixture was prepared in 50 mM Tris pH 8.5, 0.01% BRIJ-35, 10 mM MgCl2, 1 mM EGTA, 0.02% NaN3. […] After 1 hour Kinase Reaction incubation, 5 μL of Detection Mix was added.

In the next data set the target is LRRK2 G2019S (Homo sapiens (Human), UniProt Q5S007, G2019S). Briefly: LRRK2 G2019S Kinase Assay. The conditions noted are these: 10 μM ATP. In kind it is biochemical. The protocol: Procedure: Enzyme was incubated with substrate peptide in reaction buffer in the presence and absence of test compounds or Staurosporine. All additions were done on ice, followed by the addition of ATP mix. Wells were uniformly mixed using an Eppendorff plate shaker and incubated at 30° C. for 20 min, and stopped by the addition of 5 μl of 3% phosphoric acid. Volume was increased to 100 μl by adding 0.8% phosphoric acid which was then transferred to PC filter mats (Millipore), pre-equilibrated with 70% ethanol and water. Plates were washed thrice with 100 μl 0.8% phosphoric acid and dried for an hour at 60° C. 100 μl scintillation fluid was added into each well and reading taken in Perkin Elmer TOPCOUNT beta counter. […] A validation EC50 curve was generated by plotting CPM for each Staurosporine concentration on y-axis against the Log concentration of Staurosporine (nM) on the x-axis followed by a best fit curve through the points.
Chain of LRRK2 G2019S (Q5S007 970-2527 G2019S): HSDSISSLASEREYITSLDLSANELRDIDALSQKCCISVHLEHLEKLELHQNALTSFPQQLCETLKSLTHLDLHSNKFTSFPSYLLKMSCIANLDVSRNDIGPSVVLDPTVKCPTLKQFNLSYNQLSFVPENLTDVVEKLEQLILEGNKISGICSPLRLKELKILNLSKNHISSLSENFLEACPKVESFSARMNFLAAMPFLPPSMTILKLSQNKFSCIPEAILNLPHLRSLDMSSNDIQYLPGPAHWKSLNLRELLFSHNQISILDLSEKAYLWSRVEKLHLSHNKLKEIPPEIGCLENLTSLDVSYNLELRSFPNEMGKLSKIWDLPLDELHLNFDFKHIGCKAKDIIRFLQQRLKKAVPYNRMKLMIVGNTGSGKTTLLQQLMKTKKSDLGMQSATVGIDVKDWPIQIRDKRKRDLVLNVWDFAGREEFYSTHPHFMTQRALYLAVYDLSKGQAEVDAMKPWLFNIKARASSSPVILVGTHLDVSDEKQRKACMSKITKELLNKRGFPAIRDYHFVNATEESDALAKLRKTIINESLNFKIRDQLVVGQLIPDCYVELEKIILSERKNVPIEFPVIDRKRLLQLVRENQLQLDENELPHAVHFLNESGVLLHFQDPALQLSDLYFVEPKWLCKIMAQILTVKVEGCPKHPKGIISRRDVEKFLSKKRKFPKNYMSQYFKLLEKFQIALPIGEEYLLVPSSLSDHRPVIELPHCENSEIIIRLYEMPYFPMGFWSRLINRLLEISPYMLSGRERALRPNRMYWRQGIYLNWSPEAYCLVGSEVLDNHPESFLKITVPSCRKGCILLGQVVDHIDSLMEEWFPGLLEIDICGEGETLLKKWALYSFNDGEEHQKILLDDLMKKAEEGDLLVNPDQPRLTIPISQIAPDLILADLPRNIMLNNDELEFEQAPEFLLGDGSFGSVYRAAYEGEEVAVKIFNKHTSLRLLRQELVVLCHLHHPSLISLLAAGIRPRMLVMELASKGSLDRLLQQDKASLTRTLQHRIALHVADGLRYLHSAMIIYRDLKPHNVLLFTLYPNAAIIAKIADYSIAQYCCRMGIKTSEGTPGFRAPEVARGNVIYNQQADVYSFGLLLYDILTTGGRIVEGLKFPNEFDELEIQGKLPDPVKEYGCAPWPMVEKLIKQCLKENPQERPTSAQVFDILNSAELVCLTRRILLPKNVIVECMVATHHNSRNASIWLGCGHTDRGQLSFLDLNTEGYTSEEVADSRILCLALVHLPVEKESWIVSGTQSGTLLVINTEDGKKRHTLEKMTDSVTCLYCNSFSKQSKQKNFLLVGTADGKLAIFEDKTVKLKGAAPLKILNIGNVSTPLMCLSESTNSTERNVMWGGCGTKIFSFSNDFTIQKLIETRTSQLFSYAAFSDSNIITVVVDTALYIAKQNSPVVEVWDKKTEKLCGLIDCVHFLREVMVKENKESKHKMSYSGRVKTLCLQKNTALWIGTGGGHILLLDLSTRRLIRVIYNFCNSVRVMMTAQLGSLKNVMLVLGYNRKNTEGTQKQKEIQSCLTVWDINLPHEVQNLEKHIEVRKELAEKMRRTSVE
After 1 hour Kinase Reaction incubation, 5 μL of Detection Mix was added.

The next data set addresses DYRK1A (Homo sapiens (Human), UniProt Q13627). Briefly: In vitro DYRK1A inhibition assay. The format is biochemical. As to the method:
as §1
The 2×DYRK1A/Ser/Thr 18 mixture was prepared in 50 mM HEPES pH 7.5, 0.01% BRIJ-35, 10 mM MgCl2, 1 mM EGTA.

The subject of data set [1] is 299 protein kinases+17 additional preview kinases. The data set is described as follows: Protein Kinase Selectivity Profiler. In kind it is biochemical, human. The settings on record: ABL1 T315I, ALK2, ARK5, Aurora A/B/C, BRAF, C-KIT, CLK1-4, CSF1R, DYRK1A-4, FLT3, GSK3β, JAK1-3, KDR, LCK ... TRKA-C; single dose; 10 μM ATP. As to the method: In vitro profiling of the 317 member kinase panel was performed at Reaction Biology Corporation using the “HotSpot” assay platform. Briefly, specific kinase/substrate pairs along with required cofactors were prepared in reaction buffer; 20 mM Hepes (pH 7.5), 10 mM MgCl2, 1 mM EGTA, 0.02% Brij35, 0.02 mg/ml BSA, 0.1 mM Na3VO4, 2 mM DTT, 1% DMSO. Compounds were delivered into the reaction, followed ˜20 min later by addition of a mixture of ATP (Sigma) and 33P ATP (PerkinElmer) to a final concentration of 10 μM. Reactions were carried out at 25° C. for 120 min, followed by spotting of the reactions onto P81 ion exchange filter paper (Whatman). Unbound phosphate was removed by extensive washing of filters in 0.75% phosphoric acid. […] IC50 values and curve fits were obtained using Prism (GraphPad Software). Kinome tree representations were prepared using Kinome Mapper (http://www.reactionbiology.com/apps/kinome/mapper/Launch Kinome.htm). Specifically for the LRRK2 enzyme the substrate LRRKtide (gene bank and protein access numbers NP_940980.2 Q5S007) and clone aa 970-2527 expressed in baculovirus in insect cells with N-terminal GST tag was employed in the study protocol. In the case of DYRK1A (SEQ ID NO 16) the substrate casein (gene bank and protein access numbers NP_001387 Q13627) full length clone expressed in insect with n-terminal tag was used.
A control compound was tested in 10-dose IC50 mode with 3-fold serial dilution starting at 20 μM. Reactions were carried out at 10 μM ATP. Data pages include raw data, % Enzyme activity (relative to DMSO controls), and curve fits.

In data set [2] the test system is MPTP-injected C57 black mice. The data set is described as follows: MPTP mouse model of Parkinson's disease, oral pre-treatment. In kind it is in vivo.
Data set [3] deals with MPTP-injected C57 black mice. Briefly: MPTP mouse model, intravenous pre-treatment. The format is in vivo. The settings on record: 5 mg/kg i.v. As to the method:
24 C57 black mice (C57/bl6, 6-8 week old, and 25-30 g) were purchased from Charles River Laboratories, Ohio. […] Prior to treatment animals were pre-trained on rotarod for at least 3 minutes every day for three successive days. Test compound (5 mg/kg) was administered intravenously to group C animals, 24 h prior to MPTP-injection and continued daily for additional 11 days. MPTP was dissolved in PBS and injected intraperitoneally (i.p.) at doses of 25 mg/kg, once daily for 5 days to group B and C animals. Group A animals were injected with saline (i.p.) to be used as controls. Urine and Faeces were collected on Day 8, behavioural studies were performed on Day 9 (4-days post-MPTP). On day 12 (7 days post-MPTP), 4 animals/group were sacrificed, different brains regions including striatum and substantia nigra were dissected. Left striatum were used for neurochemical analysis. Other 4 animals/group were perfused and used for TH immunohistological studies.

The nature of the next data set: in vivo. The settings on record: male, Sprague Dawley, rat. An excerpt:
To investigate the pharmacokinetic profiles of test compound following intravenous bolus administration and oral gavage in male Sprague Dawley rats.

Where [4] appears, read: orally administered, pre-treatment.

Chain of LRRK2 (Q5S007 970-2527): as the sequence (Q5S007 970-2527 G2019S) above, with S1050G counted along it

For `Cc1n[nH]c2ncc(-c3cncc(N(C)CC4CCOCC4)n3)cc12` [Compound 71, N-methyl-6-(3-methyl-1H-pyrazolo[3,4-b]pyridin-5-yl)-N-((tetrahydro-2H-pyran-4-yl)methyl)pyrazin-2-amine], the IC50 (usually the concentration at which inhibition is half-maximal) against LRRK2 is < 500 nM. At LRRK2 G2019S, the 50% inhibitory concentration (IC50) is < 500 nM. Further, the IC50 at DYRK1A was < 500 nM. The “activity against kinases in broader scope, relative to DMSO control” value in data set [1] is reported as 5-15%. Moreover, the “protection against MPTP-induced TH cell loss and dopaminergic degeneration in substantia nigra and striatum” value in data set [2] (10 mg/kg and 30 mg/kg oral) was “dose-dependent protection”. Also, in data set [2] (setting [4]), the “locomotor activities in MPTP-injected mice” value is “Improve Locomotor Activities” and the “striatal dopamine levels in MPTP treated mice” value is “Restore Striatal Dopamine Levels”. Besides, the “protection against MPTP-induced TH neuronal loss in the substantia nigra and in the striatum” value in data set [3] is reported as “Protect Against MPTP-Induced TH Neuronal Loss”. In the data set “in vivo” (iv, 5 mg/kg), the AUC(0-t) (as a rule, exposure summed from dosing to a finite time, without extrapolation to infinity) was determined as 1020 ng·h/mL; the distribution volume (Vd) (usually a proportionality between amount in the body and measured concentration, not a real space) is 15.2 L/kg; the clearance – broadly, a measure of how efficiently the substance is removed, as volume per time – came out at 123 mL/min/kg; the half-life (commonly how long it takes for the measured level to halve) was 2.26 h. In “in vivo” (po, 30 mg/kg), the area under the curve AUC(0-t) came to 1040 ng·h/mL; the Cmax (in general, the maximum level reached in the sampled fluid or tissue) is 133 ng/mL; the F came out at 24%; the Tmax – broadly, the time from dosing to the highest level – turned out to be 6.7 h.

For `OCCN1CCN(c2cncc(-c3cnc4[nH]ccc4c3)n2)CC1` [Compound 126, 2-(4-(6-(1H-pyrrolo[2,3-b]pyridin-5-yl)pyrazin-2-yl)piperazin-1-yl)ethanol], the half-inhibitory concentration (IC50) against LRRK2, at LRRK2 G2019S and on DYRK1A was < 500 nM throughout.

Turning to `CN(C)CCNc1cncc(-c2cnc3[nH]ccc3c2)n1` [Compound 127, N1-(6-(1H-pyrrolo[2,3-b]pyridin-5-yl)pyrazin-2-yl)-N2,N2-dimethylethane-1,2-diamine], the 50% inhibitory concentration (IC50) at LRRK2, at LRRK2 G2019S and against DYRK1A was > 500 nM throughout.

On to `c1cnc(N2CCCC2)c(-c2cnc3[nH]ccc3c2)n1` [Compound 128, 5-(3-(pyrrolidin-1-yl)pyrazin-2-yl)-1H-pyrrolo[2,3-b]pyridine], for which the IC50 against LRRK2, against LRRK2 G2019S and at DYRK1A was > 500 nM each time.

In the case of `O=C1CCCN1c1cncc(-c2cnc3[nH]ccc3c2)n1` [Compound 131, 1-(6-(1H-pyrrolo[2,3-b]pyridin-5-yl)pyrazin-2-yl)pyrrolidin-2-one], the concentration for half-maximal inhibition (IC50) against LRRK2, on LRRK2 G2019S and against DYRK1A was > 500 nM throughout.

Take `FC1(F)CCN(c2cncc(-c3cnc4[nH]ccc4c3)n2)C1` [Compound 135, 5-(6-(3,3-difluoropyrrolidin-1-yl)pyrazin-2-yl)-1H-pyrrolo[2,3-b]pyridine]: the IC50 on LRRK2, against LRRK2 G2019S and against DYRK1A was > 500 nM in each case.

As to `OC1CCN(c2cncc(-c3cnc4[nH]ccc4c3)n2)CC1` [Compound 137, 1-(6-(1H-pyrrolo[2,3-b]pyridin-5-yl)pyrazin-2-yl)piperidin-4-ol], the IC50 against LRRK2, at LRRK2 G2019S and at DYRK1A was < 500 nM in each case.

For `CN(CC1CCOCC1)c1cncc(-c2cnc3[nH]ccc3c2)n1` [Compound 143, N-methyl-6-(1H-pyrrolo[2,3-b]pyridin-5-yl)-N-((tetrahydro-2H-pyran-4-yl)methyl)pyrazin-2-amine], the concentration for half-maximal inhibition (IC50) against LRRK2, at LRRK2 G2019S and against DYRK1A was < 500 nM each time.

Take `CN(CC1CCOCC1)c1cncc(-c2cnc3[nH]cc(Cl)c3c2)n1` [Compound 144, 6-(3-chloro-1H-pyrrolo[2,3-b]pyridin-5-yl)-N-methyl-N-((tetrahydro-2H-pyran-4-yl)methyl)pyrazin-2-amine]: the concentration for half-maximal inhibition (IC50) against LRRK2, on LRRK2 G2019S and at DYRK1A was < 500 nM in each case.

Regarding `CN(CC1CCOCC1)c1cncc(-c2cnc3[nH]cc(F)c3c2)n1` [Compound 145, 6-(3-fluoro-1H-pyrrolo[2,3-b]pyridin-5-yl)-N-methyl-N-((tetrahydro-2H-pyran-4-yl)methyl)pyrazin-2-amine], the IC50 against LRRK2, against LRRK2 G2019S and against DYRK1A was < 500 nM throughout.

Turning to `Clc1c[nH]c2ncc(-c3cncc(N4CCOCC4)n3)cc12` [Compound 149, 4-(6-(3-chloro-1H-pyrrolo[2,3-b]pyridin-5-yl)pyrazin-2-yl)morpholine], the IC50 at LRRK2, against LRRK2 G2019S and against DYRK1A was < 500 nM each time.

`Fc1c[nH]c2ncc(-c3cncc(N4CCOCC4)n3)cc12` [Compound 150, 4-(6-(3-fluoro-1H-pyrrolo[2,3-b]pyridin-5-yl)pyrazin-2-yl)morpholine]: the IC50 against LRRK2, against LRRK2 G2019S and on DYRK1A was < 500 nM each time.

Take `CN1CCN(Cc2cccc(-c3cnc4[nH]ccc4c3)c2)CC1` [Compound 152, 5-(3-((4-methylpiperazin-1-yl)methyl)phenyl)-1H-pyrrolo[2,3-b]pyridine]: the IC50 at LRRK2, against LRRK2 G2019S and against DYRK1A was < 500 nM throughout.

As to `COc1ccccc1-c1n[nH]c2ncc(-c3ccsc3)cc12` [Compound 183, 3-(2-methoxyphenyl)-5-(thiophen-3-yl)-1H-pyrazolo[3,4-b]pyridine], the 50% inhibitory concentration (IC50) on LRRK2, at LRRK2 G2019S and at DYRK1A was < 500 nM in each case.

Consider `COc1ccccc1-c1n[nH]c2ncc(-c3ccoc3)cc12` [Compound 184, 5-(furan-3-yl)-3-(2-methoxyphenyl)-1H-pyrazolo[3,4-b]pyridine], for which the half-inhibitory concentration (IC50) against LRRK2, against LRRK2 G2019S and against DYRK1A was < 500 nM throughout.
